Laboratory results as given in US20210380595A1 (ARAXES PHARMA LLC, priority 2018, published 2021).

biological target: T1, KRAS G12C 1-169, his-tagged protein, GDP-loaded (Homo sapiens, UniProt P01116, G12C); experiment: Biochemical assay: covalent modification of KRAS G12C measured by mass spectrometry (RapidFire/TOF or Q-Exactive); format: binding; conditions: tested at 32 μM; also: time not given here
T1 construct: KRAS G12C 1-169, his-tagged protein, GDP-loaded
How it was run: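 GDP-loaded KRAS G12C 1-169 (his-tagged, 2 μM or 0.5 μM in 20 mM Hepes, 150 mM NaCl, 1 mM MgCl2) reacted with compound at 32 μM or 8 μM final, then quenched with formic acid. Intact-protein LC-MS (RapidFire/TOF or Q-Exactive) with charge-envelope deconvolution; % modification from modified vs unmodified peak intensities.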

Row | Structure (SMILES) | Bind %
1 | C=CC(=O)N1CC2(CCN(c3cccc(-c4c(C)ccc5[nH]ncc45)c3C#N)CC2)C1 [Compound I-116, 2-(2-acryloyl-2,7-diazaspiro[3.5]nonan-7-yl)-6-(5-methyl-1H-indazol-4-yl)benzonitrile] | + (+ indicates binding activity greater than 0% and up to 50%)
2 | C=CC(=O)N1CC2(CCN(c3cc(NCc4ccccn4)c(F)c(-c4c(C)ccc5[nH]ncc45)c3C#N)CC2)C1 [Compound I-117, 6-(2-acryloyl-2,7-diazaspiro[3.5]nonan-7-yl)-3-fluoro-2-(5-methyl-1H-indazol-4-yl)-4-((pyridin-2-ylmethyl)amino) benzonitrile] | ++ (++ indicates binding activity from 50 to 75%)
3 | C=CC(=O)N1CC2(CCN(c3ccc(F)c(-c4c(C)ccc5[nH]ncc45)c3Cl)CC2)C1 [Compound I-118, 1-(7-(2-chloro-4-fluoro-3-(5-methyl-1H-indazol-4-yl)phenyl)-2,7-diazaspiro[3.5]nonan-2-yl)prop-2-en-1-one] | + (+ indicates binding activity greater than 0% and up to 50%)
4 | C=CC(=O)N1CC2(CCN(c3cc(OCCCN(C)C)c(F)c(-c4c(C)ccc5cnn(C)c45)c3C#N)CC2)C1 [Compound I-119, 6-(2-acryloyl-2,7-diazaspiro[3.5]nonan-7-yl)-2-(1,6-dimethyl-1H-indazol-7-yl)-4-(3-(dimethylamino)propoxy)-3-fluorobenzo-nitrile] | + (+ indicates binding activity greater than 0% and up to 50%)
5 | C=CC(=O)N1CC2(CCN(c3cc(NCCN4CCCC4)c(F)c(-c4c(C)ccc5[nH]ncc45)c3C#N)CC2)C1 [Compound I-120, 6-(2-acryloyl-2,7-diazaspiro[3.5]nonan-7-yl)-3-fluoro-2-(5-methyl-1H-indazol-4-yl)-4-((2-(pyrrolidin-1-yl)ethyl)amino) benzonitrile] | + (+ indicates binding activity greater than 0% and up to 50%)
6 | C=CC(=O)N1CC2(CCN(c3cc(N4CCCC4)c(F)c(-c4c(C)ccc5[nH]ncc45)c3C#N)CC2)C1 [Compound I-121, 6-(2-acryloyl-2,7-diazaspiro[3.5]nonan-7-yl)-3-fluoro-2-(5-methyl-1H-indazol-4-yl)-4-(pyrrolidin-1-yl)benzonitrile] | + (+ indicates binding activity greater than 0% and up to 50%)
7 | C=CC(=O)N1CC2(CCN(c3cc(OCc4ccccn4)c(Cl)c(-c4c(C)ccc5[nH]ncc45)c3C#N)CC2)C1 [Compound I-122, 6-(2-acryloyl-2,7-diazaspiro[3.5]nonan-7-yl)-3-chloro-2-(5-methyl-1H-indazol-4-yl)-4-(pyridin-2-ylmethoxy) benzonitrile] | ++ (++ indicates binding activity from 50 to 75%)
8 | C=CC(=O)N1CC2(CCN(c3cc(N4CC(N5CCOCC5)C4)c(F)c(-c4c(C)ccc5[nH]ncc45)c3C#N)CC2)C1 [Compound I-123, 6-(2-acryloyl-2,7-diazaspiro[3.5]nonan-7-yl)-3-fluoro-2-(5-methyl-1H-indazol-4-yl)-4-(3-morpholino-azetidin-1-yl)benzonitrile] | + (+ indicates binding activity greater than 0% and up to 50%)
9 | C=CC(=O)N1CC2(CCN(c3cc(N4CCOCC4)c(Cl)c(-c4c(C)ccc5[nH]ncc45)c3C#N)CC2)C1 [Compound I-124, 6-(2-acryloyl-2,7-diazaspiro[3.5]nonan-7-yl)-3-chloro-2-(5-methyl-1H-indazol-4-yl)-4-morpholino-benzonitrile] | + (+ indicates binding activity greater than 0% and up to 50%)
10 | C=CC(=O)N1CC2(CCN(c3cc(OCCCN(C)C)c(Cl)c(-c4c(C)ccc5[nH]ncc45)c3C#N)CC2)C1 [Compound I-125, 6-(2-acryloyl-2,7-diazaspiro[3.5]nonan-7-yl)-3-chloro-4-(3-(dimethylamino)propoxy)-2-(5-methyl-1H-indazol-4-yl)benzonitrile] | ++ (++ indicates binding activity from 50 to 75%)
11 | C=CC(=O)N1CC2(CCN(c3cc(OC[C@H]4CCCN4C)c(F)c(-c4c(C)ccc5[nH]ncc45)c3C#N)CC2)C1 [Compound I-127, 6-(2-acryloyl-2,7-diazaspiro[3.5]nonan-7-yl)-3-fluoro-2-(5-methyl-1H-indazol-4-yl)-4-(((R)-1-methylpyrrolidin-2-yl)methoxy) benzonitrile] | ++ (++ indicates binding activity from 50 to 75%)
12 | C=CC(=O)N1CC2(CCN(c3cc(OC[C@@H]4CCCN4C)c(F)c(-c4c(C)ccc5[nH]ncc45)c3C#N)CC2)C1 [Compound I-128, 6-(2-acryloyl-2,7-diazaspiro[3.5]nonan-7-yl)-3-fluoro-2-(5-methyl-1H-indazol-4-yl)-4-(((S)-1-methylpyrrolidin-2-yl)methoxy) benzonitrile] | + (+ indicates binding activity greater than 0% and up to 50%)
13 | C=CC(=O)N1CC2(CCN(c3ccc(OCC(F)(F)F)c(-c4c(C)ccc5[nH]ncc45)c3C#N)CC2)C1 [Compound I-130, 6-(2-acryloyl-2,7-diazaspiro[3.5]nonan-7-yl)-2-(5-methyl-1H-indazol-4-yl)-3-(2,2,2-trifluoroethoxy) benzonitrile] | + (+ indicates binding activity greater than 0% and up to 50%)
14 | C=CC(=O)N1CC2(CCN(c3cc(N(C)CCN4CCCC4)c(F)c(-c4c(C)ccc5[nH]ncc45)c3C#N)CC2)C1 [Compound I-131, 6-(2-acryloyl-2,7-diazaspiro[3.5]nonan-7-yl)-3-fluoro-4-(methyl(2-(pyrrolidin-1-yl)ethyl)amino)-2-(5-methyl-1H-indazol-4-yl)benzonitrile] | + (+ indicates binding activity greater than 0% and up to 50%)
15 | C=CC(=O)N1CC2(CCN(c3cc(OC)c(Cl)c(-c4c(C)ccc5[nH]ncc45)c3C#N)CC2)C1 [Compound I-132, 6-(2-acryloyl-2,7-diazaspiro[3.5]nonan-7-yl)-3-chloro-4-methoxy-2-(5-methyl-1H-indazol-4-yl)benzonitrile] | + (+ indicates binding activity greater than 0% and up to 50%)
16 | C=CC(=O)N1CC2(CCN(c3cc(NCCc4ccccn4)c(F)c(-c4c(C)ccc5[nH]ncc45)c3C#N)CC2)C1 [Compound I-133, 6-(2-acryloyl-2,7-diazaspiro[3.5]nonan-7-yl)-3-fluoro-2-(5-methyl-1H-indazol-4-yl)-4-((2-(pyridin-2-yl)ethyl)amino) benzonitrile] | + (+ indicates binding activity greater than 0% and up to 50%)
17 | C=CC(=O)N1CC2(CCN(c3cc(OCCN4CCCC4)c(F)c(-c4c(C)ccc5[nH]ncc45)c3C#N)CC2)C1 [Compound I-135, 6-(2-acryloyl-2,7-diazaspiro[3.5]nonan-7-yl)-3-fluoro-2-(5-methyl-1H-indazol-4-yl)-4-(2-(pyrrolidin-1-yl)ethoxy) benzonitrile] | + (+ indicates binding activity greater than 0% and up to 50%)
18 | C=CC(=O)N1CC2(CCN(c3cccc(-c4c(C)ccc5[nH]ncc45)c3C#N)C2)C1CC (stereo not drawn) [Compound I-137, 2-(2-acryloyl-1-ethyl-2,6-diazaspiro[3.4]octan-6-yl)-6-(5-methyl-1H-indazol-4-yl)benzonitrile] | + (+ indicates binding activity greater than 0% and up to 50%)
19 | C=CC(=O)N1CC2(CCN(c3cc(OCc4ccccn4)cc(-c4c(C)ccc5[nH]ncc45)c3C#N)C2)C1CC (stereo not drawn) [Compound I-138] | ++ (++ indicates binding activity from 50 to 75%)
20 | C=CC(=O)N1CC2(CCN(c3cccc(-c4c(C)ccc5[nH]ncc45)c3C#N)C2)C1C(C)C (stereo not drawn) [Compound I-139, 2-(2-acryloyl-1-isopropyl-2,6-diazaspiro[3.4]octan-6-yl)-6-(5-methyl-1H-indazol-4-yl)benzonitrile] | + (+ indicates binding activity greater than 0% and up to 50%)

same assay, conditions: tested at a concentration of 8 μM

Row | Structure (SMILES) | Bind %
21 | C=CC(=O)N1CC2(CCN(c3cccc(-c4c(C)ccc5[nH]ncc45)c3C#N)C2)C1C (stereo not drawn) [Compound I-126, 2-(2-acryloyl-1-methyl-2,6-diazaspiro[3.4]octan-6-yl)-6-(5-methyl-1H-indazol-4-yl)benzonitrile] | + (+ indicates binding activity greater than 0% and up to 50%)
22 | C=CC(=O)N1CC2(CCN(c3cc(OCc4ccccn4)cc(-c4c(C)ccc5[nH]ncc45)c3C#N)C2)C1C (stereo not drawn) [Compound I-129, 2-(2-acryloyl-1-methyl-2,6-diazaspiro[3.4]octan-6-yl)-6-(5-methyl-1H-indazol-4-yl)-4-(pyridin-2-ylmethoxy) benzonitrile] | ++ (++ indicates binding activity from 50 to 75%)
23 | C=CC(=O)N1CC2(CCN(c3ccc(F)c(-c4c(C)ccc5[nH]ncc45)c3C#N)C2)C1C (stereo not drawn) [Compound I-134, 6-(2-acryloyl-1-methyl-2,6-diazaspiro[3.4]octan-6-yl)-3-fluoro-2-(5-methyl-1H-indazol-4-yl)benzonitrile] | ++ (++ indicates binding activity from 50 to 75%)
24 | C=CC(=O)N1CC2(CCN(c3cc(N4CCC(CN(C)C)CC4)c(F)c(-c4c(C)ccc5[nH]ncc45)c3C#N)CC2)C1 [Compound I-136, 6-(2-acryloyl-2,7-diazaspiro[3.5]nonan-7-yl)-4-(4-((dimethylamino)methyl)piperidin-1-yl)-3-fluoro-2-(5-methyl-1H-indazol-4-yl)benzonitrile] | + (+ indicates binding activity greater than 0% and up to 50%)
